Laboratory results as given in ChEMBL document CHEMBL5543142, “Discovery of YFJ-36: Design, Synthesis, and Antibacterial Activities of Catechol-Conjugated β-Lactams against Gram-Negative Bacteria” (J Med Chem, 2024).

Key:
Acinetobacter baumannii [1] = assay: Antibacterial activity against OXA-23 producing multidrug-resistant Acinetobacter baumannii clinical isolate 17-2 assessed as inhibition of bacterial growth incubated for 18 to 20 hrs by two fold serial dilution assay; type: functional; conditions: time 18-20 hrs
Acinetobacter baumannii [2] = assay: Antibacterial activity against OXA-23 producing multidrug-resistant Acinetobacter baumannii clinical isolate 15-3 assessed as inhibition of bacterial growth incubated for 18 to 20 hrs by two fold serial dilution assay; type: functional; conditions: time 18-20 hrs
Pseudomonas aeruginosa [3] = assay: Antibacterial activity against IMP-4 producing multidrug-resistant Pseudomonas aeruginosa clinical isolate 17-13 assessed as inhibition of bacterial growth incubated for 18 to 20 hrs by two fold serial dilution assay; type: functional; conditions: time 18-20 hrs
Klebsiella pneumoniae [4] = assay: Antibacterial activity against KPC-2 producing multidrug-resistant Klebsiella pneumoniae clinical isolate 15-1 assessed as inhibition of bacterial growth incubated for 18 to 20 hrs by two fold serial dilution assay; type: functional; conditions: time 18-20 hrs
Escherichia coli [5] = assay: Antibacterial activity against ESBL-producing multidrug-resistant Escherichia coli clinical isolate 14-4 assessed as inhibition of bacterial growth incubated for 18 to 20 hrs by two fold serial dilution assay; type: functional; conditions: time 18-20 hrs
Pseudomonas aeruginosa [6] = assay: Antibacterial activity against IMP-4 producing multidrug-resistant Pseudomonas aeruginosa clinical isolate 19-5 assessed as inhibition of bacterial growth incubated for 18 to 20 hrs by two fold serial dilution assay; type: functional; conditions: time 18-20 hrs
Klebsiella pneumoniae [7] = assay: Antibacterial activity against KPC-2 producing multidrug-resistant Klebsiella pneumoniae clinical isolate 15-3 assessed as inhibition of bacterial growth incubated for 18 to 20 hrs by two fold serial dilution assay; type: functional; conditions: time 18-20 hrs
Pseudomonas aeruginosa [8] = assay: Antibacterial activity against IMP-4 producing multidrug-resistant Pseudomonas aeruginosa clinical isolate 19-17 assessed as inhibition of bacterial growth incubated for 18 to 20 hrs by two fold serial dilution assay; type: functional; conditions: time 18-20 hrs
Escherichia coli [9] = assay: Antibacterial activity against ESBL-producing multidrug-resistant Escherichia coli clinical isolate 14-1 assessed as inhibition of bacterial growth incubated for 18 to 20 hrs by two fold serial dilution assay; type: functional; conditions: time 18-20 hrs
Acinetobacter baumannii [10] = assay: Antibacterial activity against OXA-23 producing multidrug-resistant Acinetobacter baumannii clinical isolate 15-1 assessed as inhibition of bacterial growth incubated for 18 to 20 hrs by two fold serial dilution assay; type: functional; conditions: time 18-20 hrs
[11] = Clearance in ICR mouse at 20 mg/kg,iv administration measured upto 6 hrs by LC-MS/MS analysis; type: ADME, organism-based; conditions: in vivo
Acinetobacter baumannii [12] = assay: Antibacterial activity against OXA-23 producing multidrug-resistant Acinetobacter baumannii clinical isolate 17-3 assessed as inhibition of bacterial growth incubated for 18 to 20 hrs by two fold serial dilution assay; type: functional; conditions: time 18-20 hrs
Klebsiella pneumoniae [13] = assay: Antibacterial activity against KPC-2 producing multidrug-resistant Klebsiella pneumoniae clinical isolate 15-2 assessed as inhibition of bacterial growth incubated for 18 to 20 hrs by two fold serial dilution assay; type: functional; conditions: time 18-20 hrs
Acinetobacter baumannii [14] = assay: Antibacterial activity against OXA-23 producing multidrug-resistant Acinetobacter baumannii clinical isolate 15-5 assessed as inhibition of bacterial growth incubated for 18 to 20 hrs by two fold serial dilution assay; type: functional; conditions: time 18-20 hrs
Acinetobacter baumannii [15] = assay: Antibacterial activity against OXA-23 producing multidrug-resistant Acinetobacter baumannii clinical isolate 15-2 assessed as inhibition of bacterial growth incubated for 18 to 20 hrs by two fold serial dilution assay; type: functional; conditions: time 18-20 hrs
[16] = Volume of distribution at steady state in ICR mouse at 20 mg/kg,iv administration measured upto 6 hrs by LC-MS/MS analysis; type: ADME, organism-based; conditions: in vivo, read-out: Vdss
[17] = Half life in ICR mouse at 20 mg/kg,iv administration measured upto 6 hrs by LC-MS/MS analysis; type: ADME, organism-based; conditions: in vivo
[18] = AUC (0 to infinity) in ICR mouse at 20 mg/kg,iv administration measured upto 6 hrs by LC-MS/MS analysis; type: ADME, organism-based; conditions: in vivo
Acinetobacter baumannii [19] = assay: Antibacterial activity against OXA-23 producing multidrug-resistant Acinetobacter baumannii clinical isolate 15-4 assessed as inhibition of bacterial growth incubated for 18 to 20 hrs by two fold serial dilution assay; type: functional; conditions: time 18-20 hrs
Pseudomonas aeruginosa [20] = assay: Antibacterial activity against IMP-4 producing multidrug-resistant Pseudomonas aeruginosa clinical isolate 19-1 assessed as inhibition of bacterial growth incubated for 18 to 20 hrs by two fold serial dilution assay; type: functional; conditions: time 18-20 hrs
[21] = MRT in ICR mouse at 20 mg/kg,iv administration measured upto 6 hrs by LC-MS/MS analysis; type: ADME, organism-based; conditions: in vivo
Escherichia coli [22] = assay: Antibacterial activity against Escherichia coli ATCC35218 assessed as inhibition of bacterial growth incubated for 18 to 20 hrs by two fold serial dilution assay; type: functional; conditions: time 18-20 hrs
Escherichia coli [23] = assay: Antibacterial activity against ESBL-producing multidrug-resistant Escherichia coli clinical isolate 14-2 assessed as inhibition of bacterial growth incubated for 18 to 20 hrs by two fold serial dilution assay; type: functional; conditions: time 18-20 hrs
Klebsiella pneumoniae [24] = assay: Antibacterial activity against KPC-2 producing multidrug-resistant Klebsiella pneumoniae clinical isolate 15-5 assessed as inhibition of bacterial growth incubated for 18 to 20 hrs by two fold serial dilution assay; type: functional; conditions: time 18-20 hrs
Pseudomonas aeruginosa [25] = assay: Antibacterial activity against IMP-4 producing multidrug-resistant Pseudomonas aeruginosa clinical isolate 17-1 assessed as inhibition of bacterial growth incubated for 18 to 20 hrs by two fold serial dilution assay; type: functional; conditions: time 18-20 hrs
[26] = Plasma protein binding in mouse incubated for 35 mins by LC-MS/MS analysis; type: ADME, cell-free; conditions: read-out: PPB (converted)
Acinetobacter baumannii [27] = assay: Antibacterial activity against OXA-23 producing multidrug-resistant Acinetobacter baumannii clinical isolate 17-8 assessed as inhibition of bacterial growth incubated for 18 to 20 hrs by two fold serial dilution assay; type: functional; conditions: time 18-20 hrs
Acinetobacter baumannii [28] = assay: Antibacterial activity against OXA-23 producing multidrug-resistant Acinetobacter baumannii clinical isolate 17-5 assessed as inhibition of bacterial growth incubated for 18 to 20 hrs by two fold serial dilution assay; type: functional; conditions: time 18-20 hrs
Acinetobacter baumannii [29] = assay: Antibacterial activity against OXA-23 producing multidrug-resistant Acinetobacter baumannii clinical isolate 17-6 assessed as inhibition of bacterial growth incubated for 18 to 20 hrs by two fold serial dilution assay; type: functional; conditions: time 18-20 hrs
Acinetobacter baumannii [30] = assay: Antibacterial activity against OXA-23 producing multidrug-resistant Acinetobacter baumannii clinical isolate 17-7 assessed as inhibition of bacterial growth incubated for 18 to 20 hrs by two fold serial dilution assay; type: functional; conditions: time 18-20 hrs

SMILES | MIC (Acinetobacter baumannii [1]) [µg/mL] | MIC (Acinetobacter baumannii [2]) [µg/mL] | MIC (Pseudomonas aeruginosa [3]) [µg/mL] | MIC (Klebsiella pneumoniae [4]) [µg/mL] | MIC (Escherichia coli [5]) [µg/mL] | MIC (Pseudomonas aeruginosa [6]) [µg/mL] | MIC (Klebsiella pneumoniae [7]) [µg/mL] | MIC (Pseudomonas aeruginosa [8]) [µg/mL] | MIC (Escherichia coli [9]) [µg/mL] | MIC (Acinetobacter baumannii [10]) [µg/mL] | clearance [11] [mL/min/kg] | MIC (Acinetobacter baumannii [12]) [µg/mL] | MIC (Klebsiella pneumoniae [13]) [µg/mL] | MIC (Acinetobacter baumannii [14]) [µg/mL] | MIC (Acinetobacter baumannii [15]) [µg/mL] | Vd [16] [L/kg] | half-life [17] [min] | MIC (Escherichia coli [22]) [µg/mL] | MIC (Escherichia coli [23]) [µg/mL] | MIC (Klebsiella pneumoniae [24]) [µg/mL] | other results
Nc1nc(/C(=N/OC(C(=O)O)C2CCC(F)(F)CC2)C(=O)N[C@@H]2C(=O)N3C(C(=O)O)=C(CSCCNC(=O)c4ccc(O)c(O)c4Cl)CS[C@H]23)c(Br)s1.O=C(O)C(F)(F)F (some centres undefined) | 0.125 | 1 | 0.06 | 0.5 | 0.06 | 0.25 | 0.5 | 0.125 | 0.125 | 2 | 92.9 | 4 | 1 | 4 | 0.5 | 9.48 | 200 | 0.06 | 0.125 | 0.25 | AUC(0-inf) [18]: 3910 ng·h/mL; MIC (Acinetobacter baumannii [19]): 4 µg/mL; MIC (Pseudomonas aeruginosa [20]): 8 µg/mL; MRT [21]: 96.6 min
Nc1nc(/C(=N/OC(C(=O)O)C2CCCCC2)C(=O)N[C@@H]2C(=O)N3C(C(=O)O)=C(CSCCNC(=O)c4ccc(O)c(O)c4Cl)CS[C@H]23)cs1.O=C(O)C(F)(F)F (some centres undefined) |  | 8 | 1 | 4 | 0.125 |  | 2 | 0.5 | 0.125 | 8 | 90.1 |  | 2 | 4 | 4 | 1.73 | 42 | 0.125 | 1 | 1 | MIC (Pseudomonas aeruginosa [25]): 4 µg/mL; AUC(0-inf) [18]: 3440 ng·h/mL; MIC (Acinetobacter baumannii [19]): 8 µg/mL; MRT [21]: 18 min
Nc1nc(/C(=N/OC(C(=O)O)C2CCC(F)(F)CC2)C(=O)N[C@@H]2C(=O)N3C(C(=O)O)=C(CSCCNC(=O)c4ccc(O)c(O)c4Cl)CS[C@H]23)c(Cl)s1.O=C(O)C(F)(F)F (some centres undefined) | 0.25 | 4 | 0.5 | 0.5 | 0.5 | 0.5 | 0.5 | 0.125 | 0.125 | 4 | 54.1 | 2 | 1 | 4 | 1 | 0.649 | 20.4 | 0.125 | 0.25 | 1 | fraction unbound at 35 min [26]: 0.031; AUC(0-inf) [18]: 4740 ng·h/mL; MIC (Acinetobacter baumannii [19]): 8 µg/mL; MIC (Pseudomonas aeruginosa [20]): 8 µg/mL; MRT [21]: 10.8 min
CC(C)[C@H](O/N=C(\C(=O)N[C@@H]1C(=O)N2C(C(=O)O)=C(CSCCNC(=O)c3ccc(O)c(O)c3Cl)CS[C@H]12)c1csc(N)n1)C(=O)O.O=C(O)C(F)(F)F | 4 |  | 0.125 | 1 | 0.125 | 0.5 | 4 | 0.25 | 0.125 |  |  | 4 | 1 |  |  |  |  | 0.06 | 1 | 4 | MIC (Acinetobacter baumannii [27]): 4 µg/mL; MIC (Acinetobacter baumannii [28]): 4 µg/mL; MIC (Acinetobacter baumannii [29]): 16 µg/mL; MIC (Pseudomonas aeruginosa [25]): 8 µg/mL; MIC (Pseudomonas aeruginosa [20]): 1 µg/mL; MIC (Acinetobacter baumannii [30]): 8 µg/mL
